ChEMBL document CHEMBL1157539, “Thousands of chemical starting points for antimalarial lead identification” (Nature, 2010)

Tested on: Plasmodium falciparum
Test: GSK_TCMDC: Inhibition of Plasmodium falciparum 3D7 in whole erythrocytes, using parasite LDH activity as an index of growth.
Type: functional, organism-based
Details: Plasmodium falciparum, 3D7

C=CC[C@H](C[C@H](O)[C@H](Cc1ccccc1)NC(=O)c1ccc(-c2cccnn2)cc1)C(=O)NC1CCCCC1
XC50: 1190 nM

Cc1ccc(-c2nc(NC(=O)Nc3ccc(C(F)(F)F)cc3)sc2C)cc1Cl
XC50: 659 nM

CCn1c(-c2nonc2N)nc2cnc(Oc3cccc(NC(=O)c4ccc(OCCCN5CCCCC5)cc4)c3)cc21
XC50: 925 nM

OCCn1c(CNCCCNc2nc3ccccc3[nH]2)cc2c(Cl)cc(Cl)cc21
XC50: 806 nM

CC(C)CCCC(C)(C)NC[C@@H](O)[C@H](Cc1ccccc1)NC(=O)c1cc(NC(C)C)cc(N2CCCCS2(=O)=O)c1
XC50: 206 nM

COc1ccc2nccc([C@@H](O)CNCCCN(C)CCOc3cc(F)cc(F)c3)c2c1
XC50: 789 nM

COCCN1CCC(CN(C)CC(C)(C)c2nc(-c3ccc(Cl)c(O)c3)c(-c3ccncc3)[nH]2)CC1
XC50: 1030 nM

O=C(Nc1cccc(CN2CCCN(Cc3cccc(O)c3)CC2)c1)c1ccc2ccccc2c1
XC50: 786 nM

Cc1cc(F)ccc1-c1nc(Nc2ccncc2)c2ccn(C)c2n1
XC50: 940 nM

Clc1ccccc1CN1CCC(NCc2cccc(-n3ccnc3)c2)CC1
XC50: 786 nM

c1cc2[nH]c(CCCc3nc4cc(C5=N[C@H]6CCCC[C@H]6N5)ccc4[nH]3)nc2cc1C1=N[C@@H]2CCCC[C@@H]2N1
XC50: 1240 nM

Cc1cccc(C)c1OC(=O)CSc1nnc(-c2ccccc2O)o1
XC50: 884 nM

COc1ccc(CC(C)CON2C(N)=NC(N)=NC2(C)C)cc1 (centres undefined)
XC50: 3.2 nM

COc1cc(Cc2cnc(N)nc2N)cc(OCCCCCCC(=O)O)c1OC
XC50: 937 nM

CC(C)CNCc1cccc(-c2cccc(CN(CCCN3CCN(C)CC3)C(=O)NC3CCCCC3)c2)c1
XC50: 761 nM

O=C(Nc1ccccc1)N(Cc1ccc(-c2ccc(CNC3CCCC3)cc2)cc1)C1CCN(Cc2ccccc2)CC1
XC50: 408 nM

COc1ccccc1Nc1nc(C)cc(NCc2ccc(-n3ccnc3)cc2)n1
XC50: 1050 nM

COc1ccc(OCCCN2CCCCC2)cc1S(=O)(=O)c1ccc(OCc2ccc(C(F)(F)F)cc2)cc1
XC50: 1010 nM

CN1CCC(N2CCN(Cc3cccc(-c4cccc(-c5nc6ccccc6[nH]5)c4)c3)CC2)CC1
XC50: 194 nM

CCCCCCOc1ccc(C(=O)NCCCC2CCN(CCCCCNC(=O)C=Cc3ccc(Cl)c(Cl)c3)CC2)cc1
XC50: 854 nM

CCn1c(C)c(C)c2cc(C(=O)Nc3ccon3)ccc21
XC50: 732 nM

Cc1noc(C)c1-c1cccc(CNCc2ccc(-c3ccc(-c4nc5cc(C(F)(F)F)ccc5[nH]4)cc3)cc2)c1
XC50: 172 nM

CCOc1c(N2CCN(CCCCNC(=O)c3ccc(NC(=O)c4ccc(Cl)cc4)cc3)CC2)ccc2ccccc12
XC50: 684 nM

Cc1ccc(C)c2sc(N3CCN(C(=O)c4ccc([N+](=O)[O-])o4)CC3)nc12
XC50: 819 nM

CC(Cc1ccc(C(C)(C)C)cc1)NCC(O)c1ccccc1 (centres undefined)
XC50: 1810 nM

CCOc1c(CCNCCCCNCCc2ccc3ccccc3c2OCC)ccc2ccccc12
XC50: 596 nM

Cc1ccc(Cc2c(C)nc3nc(N)nc(N)c3c2C)cc1
XC50: 243 nM

COc1ccc(-c2ccc([N+](=O)[O-])cc2C(=O)NCC(C)Oc2ccc(C(F)(F)F)cc2)cc1 (centres undefined)
XC50: 550 nM

Cn1cccc1C(=O)C(=O)Nc1cccc(-c2ccc(-c3nc4cc(C(F)(F)F)ccc4[nH]3)cc2)c1
XC50: 785 nM

COc1ccc(CN(C)CCCc2ccc(NC(=O)c3cccc4c(=O)c5cccc(F)c5[nH]c34)cc2)cc1OC
XC50: 937 nM

Cc1nc(-c2nc(N3CCC(C(N)=O)CC3)ncc2-c2ccsc2)sc1C
XC50: 902 nM

CC1(CCc2ccccc2)N=C(N)N=C(N)C1c1ccc(Cl)c(Cl)c1 (centres undefined)
XC50: 316 nM

Cc1nc2nc(N)nc(N)c2c(C)c1Cc1ccc(C(N)=O)cc1
XC50: 530 nM

O=C(Nc1cccc(CN2CCCN(Cc3ccccc3)CC2)c1)c1ccc(Cl)c(Cl)c1
XC50: 896 nM

O=C(NCc1ccc(F)cc1)Nc1cccc(-c2ccc(-c3nc4cc(F)ccc4[nH]3)cc2)c1
XC50: 226 nM

Oc1cc(Nc2ccnc3cc(-c4cccc(CN5CCCCC5)c4)ccc23)c(F)cc1Cl
XC50: 102 nM

CCNc1cc(C(=O)N[C@@H](Cc2ccccc2)[C@H](O)CNC2(CC)CC2)cc(N2CCCCS2(=O)=O)c1
XC50: 1610 nM

CCOc1ccc2c(=NN=Cc3cc(OC)c(OC)cc3OC)cc(C)[nH]c2c1
XC50: 997 nM

O=c1cc(NCCCNCc2cccc(SC(F)(F)F)c2)[nH]c2ccccc12
XC50: 725 nM

COc1cccc(C2CCN(CCCCNC(=O)c3ccc(NC(=O)c4ccc(Cl)cc4)cc3)CC2)c1
XC50: 965 nM

COc1ccc(Nc2ncc3c(-c4cccc(NC(=O)CC(C)C)c4)c[nH]c3n2)cc1OC
XC50: 826 nM

O=C1COc2ccc3ccccc3c21
XC50: 701 nM

COCCNC(=O)c1ccc(OC2CCN(CC(C)=Cc3ccccc3)CC2)c(Cl)c1
XC50: 652 nM

O=C(NCCCCN1CCC(C(c2ccccc2)c2ccccc2)CC1)c1ccc(NC(=O)c2ccc(Cl)cc2)cc1
XC50: 769 nM

C=CCOC1OC(COC(c2ccccc2)(c2ccccc2)c2ccccc2)C(OC(C)=O)C(OC(C)=O)C1NC(C)=O (centres undefined)
XC50: 657 nM

CCNc1cc(C(=O)N[C@@H](Cc2ccccc2)[C@H](O)CNC(C)(C)CC(C)(C)C)c(F)c(N2CCCCS2(=O)=O)c1
XC50: 1010 nM

COc1ccc(NC(=O)[C@H](Cc2ccccc2)Nc2cc(C)nc(NCCOc3ccccc3)n2)cc1
XC50: 1070 nM

COc1ccc2nccc([C@@H](O)CN3CCC(NCc4cc5cc(Cl)ccc5[nH]4)CC3)c2c1
XC50: 128 nM

COc1ccc(N2CCN(CCCCNC(=O)c3ccc(NC(=O)c4ccc(OC(F)(F)F)cc4)cc3)CC2)c(OC)c1
XC50: 578 nM

COc1ccccc1CCNc1nc(C)cc(N[C@@H](Cc2ccccc2)C(=O)NCCCOC(C)C)n1
XC50: 865 nM

Cc1cc2nc(-c3ccc(C(=O)NCCCc4ccccc4)cc3)[nH]c2cc1C
XC50: 1180 nM

CC(C)(C)c1ccc(-c2nc3c(ccc4nc(N)nc(N)c43)[nH]2)cc1
XC50: 158 nM

Oc1ccc(-c2ccccc2)cc1CN1CCCCCC1
XC50: 1170 nM

CC(=O)Nc1ncc(C(=O)Nc2cccc(-c3ccc(-c4nc5cc(C(F)(F)F)ccc5[nH]4)cc3)c2)s1
XC50: 590 nM

COc1ccc(-c2ccc(NC(=O)c3ccc(C#N)cc3)cc2)cc1CN(C)CCO
XC50: 629 nM

CN1CCN(c2ccnc3cc4c(cc23)N(C(=O)Nc2ccc(-c3ccncc3)c3ccccc23)CC4)CC1
XC50: 945 nM

Cc1ccc(NC(=O)N2CCC(n3c(-c4ccccc4)nc4cccnc43)CC2)cc1F
XC50: 534 nM

COc1ccccc1/C=C/C(=O)N(C)C1CCN(CCCCCNC(=O)/C=C/c2ccc(Cl)c(Cl)c2)C1 (centres undefined)
XC50: 867 nM

COc1ccccc1-c1sccc1C(=O)NC1(c2cc(Cl)cc(Cl)c2)CCCC1
XC50: 938 nM

O=S(=O)(NC1CCN(c2ccnc3cc(Cl)ccc23)C1)c1ccc(C(F)(F)F)cc1 (centres undefined)
XC50: 298 nM

CN(C)CCOc1cc(O)c2c(c1)OC(C)(C)C=C2c1cccs1
XC50: 290 nM

Cc1cccc2nc(-c3ccc(-c4cccc(CN5CCN(c6ccncc6)CC5)c4)s3)[nH]c12
XC50: 126 nM

Cc1cccc2nc(-c3ccc(-c4cccc(CNCCCN5CCCC5=O)c4)cc3)[nH]c12
XC50: 840 nM

O=C(Nc1ccccc1Br)c1cn(-c2ccccc2)nc1-c1cccc([N+](=O)[O-])c1
XC50: 1320 nM

CCNc1cc(C(=O)N[C@@H](Cc2cc(F)cc(F)c2)[C@H](O)CNCc2cccc(C(F)(F)F)c2)cc(N2CCCCS2(=O)=O)c1
XC50: 613 nM

O=C(NC1CCCCC1)N(Cc1ccccc1-c1ccc(CNCCc2ccccc2)cc1)C1CCN(Cc2ccccc2)CC1
XC50: 930 nM

Cc1cc(NC(=O)NCCN2CCC(NS(=O)(=O)c3ccc(C(F)(F)F)cc3)C2)c2ccccc2n1 (centres undefined)
XC50: 645 nM

COc1cccc(NC(=O)Nc2cc(C)nc3ccccc23)c1
XC50: 723 nM

O=C1C(c2ccccc2)=C(Nc2ccc(Cl)cc2)c2ccccc21
XC50: 613 nM

CC(=O)C1(c2ccccc2)CCN(CCC2(c3ccc(Cl)c(Cl)c3)CN(C(=O)C3CCCC3)CCO2)CC1 (centres undefined)
XC50: 798 nM

O=C(/C=C/c1ccc(CNCCN2CCOCC2)cc1)NCCc1ccccc1
XC50: 864 nM

CCN(CC)CCN(Cc1ccc(-c2ccc(C(F)(F)F)cc2)cc1)C(=O)Cn1c(CCc2c(F)cccc2F)nc(=O)c2ccccc21
XC50: 637 nM

COc1cc(Cc2cnc(N)nc2N)cc(OCCCS(=O)(=O)O)c1OC
XC50: 1170 nM

CCCC(C)NC(=O)/C=C/c1ccccc1-c1cccc(OC)c1 (centres undefined)
XC50: 1250 nM

O=C(N[C@@H](Cc1ccccc1)C(=O)NC1CCCCC1)c1ccc(O)c(-c2ccc(Cl)c(Cl)c2)c1
XC50: 231 nM

COc1ccc(CNCc2ccccc2)cc1-c1ccc(S(=O)(=O)NCCN2CCCC2)s1
XC50: 674 nM

Cc1ccc2[nH]c(-c3ccc(C=CC(=O)NC4CCN(Cc5ccccc5)CC4)cc3)nc2c1
XC50: 684 nM

CCNc1cc(C(=O)N[C@@H](Cc2ccccc2)[C@H](O)CNC2(Cc3cccc(Cl)c3)CCC2)cc(N2CCCCS2(=O)=O)c1
XC50: 1180 nM

O=C(Nc1cccc(-c2ccc(-c3nc4cc(C(F)(F)F)ccc4[nH]3)cc2)c1)Nc1ccc(F)c(F)c1F
XC50: 259 nM

CCc1c(CCNCCCCCCNCCc2ccc3c(c2C)OCO3)ccc2c1OCO2
XC50: 608 nM

COc1ccc(CC(=O)Nc2ccc(-c3cccc(-c4nc5cccc(C)c5[nH]4)c3)cc2)cc1O
XC50: 452 nM

O=c1ccc(CNc2nc(NCCc3ccccc3)nc3cc(Cl)ccc23)c[nH]1
XC50: 298 nM

CC(=O)Nc1ccc(NC(=O)c2cc(-c3cc(Cl)ccc3O)n[nH]2)cc1
XC50: 176 nM

CNC(=O)c1cc(Nc2nnc(-c3ccc(C)c(S(=O)(=O)NC4CCCCC4)c3)c3ccccc23)ccc1OC
XC50: 904 nM

COC(=O)c1cccc(CNCc2ccc(-c3ccc(-c4nc5cc(F)ccc5[nH]4)cc3)cc2)c1
XC50: 237 nM

COc1cc2nc(-c3ccccc3)nc(N3CCN(C(=O)c4ccco4)CC3)c2cc1OC
XC50: 1410 nM

COc1ccc(CN(C)CCCOc2ccc(NC(=O)c3cccc4c(=O)c5cccc(C)c5[nH]c34)cc2)cc1OC
XC50: 889 nM

Cc1cc(N[C@@H](Cc2ccccc2)C(=O)NCCOc2ccccc2)nc(Nc2ccccc2)n1
XC50: 875 nM

COc1cc(C=CC(=O)N2CCC3(CC2)CC(=O)c2ccccc2O3)cc(OC)c1OC
XC50: 761 nM

CCCCNC(=O)C(C)NC(=O)c1ccc(O)c(-c2ccc(Cl)c(Cl)c2)c1 (centres undefined)
XC50: 823 nM

CC(C)n1ncc2c3c(N)nc(N)nc3ccc21
XC50: 333 nM

CN(C)c1ccc(CN2CCC(CNC(=O)c3cc(-c4ccccc4Cl)cs3)C2)cc1 (centres undefined)
XC50: 1440 nM

CC(C)(C)c1ccccc1SC1=C(O)CC2(CCNCC2)OC1=O
XC50: 884 nM

CCc1cn(CCc2ccccc2)c2ccc(C(=O)N[C@@H](Cc3ccccc3)[C@H](O)CNC(C)(C)CCCC(C)C)cc12
XC50: 219 nM
